Data: US8884072B2, “Mitigation of fouling in hydroformylation processes by water addition” (Dow Technology Investments LLC, priority 2010, dated 2014)

Experiments:
Format in all cases: physicochemical
[1] = HPPA-Na2 solubility in valeraldehyde/valeraldehyde trimers/1-butene at 70° C., filtrate quantified by ion chromatography (Examples 4-6); details: two hours
Procedure: (§1) Valeraldehyde was freshly distilled under reduced pressure prior to use. Valeraldehyde trimers were obtained by vacuum distillation of a commercial catalyst recycle sample. The distillate was determined to be a mixture of 75% valeraldehyde trimers and 25% valeraldehyde dimers by gas chromatography and mass spectrometry (GC/MS). A portion of both valeraldehyde and valeraldehyde trimers was saturated with water, and then blended with freshly distilled material to provide solutions of varying water levels. Unless otherwise noted, all water concentrations were determined by Karl-Fischer titration.
One small portion (130-160 mg) of the disodium salt of hydroxypentylphosphonic acid (HPPA-Na2) was charged to each of three, 3 oz glass pressure vessels. Valeraldehyde, valeraldehyde trimers and 1-butene were then added via syringe and the resulting mixtures (which contained various levels of water) were stirred vigorously at 70° C. for two hours. Samples were then removed at temperature, quickly filtered, and the filtrate was twice extracted with water to facilitate the quantization of HPPA-Na2 solubility by ion chromatography.
The solutions of Examples 4-6 were intended to model actual hydroformylation solution conditions.

[2] = Observation of HPPA-Na2 in valeraldehyde/valeraldehyde trimers (2:1) and 1-butene, stirred at room temperature for two hours (Examples 1-3)
Procedure: as §1
One small portion (70 mg) of a disodium salt of hydroxypentylphosphonic acid (HPPA-Na2) was charged to each of three, 3 oz glass pressure vessels. Valeraldehyde, valeraldehyde trimers (2:1 weight ratio) and 1-butene were then added via syringe and stirred at room temperature for two hours.

[3] = Solubility properties of HPPA-Na2 under simulated hydroformylation reaction conditions with incremental water addition (Example 7)
Procedure: A small portion (67 mg) of the disodium salt of hydroxypentylphosphonic acid (HPPA-Na2) was charged to a 3 oz glass pressure vessel. A 2:1 mixture of valeraldehyde and valeraldehyde trimers (4.07 g) was added, and stirring was initiated at room temperature. Butene-1 (1.22 g) was added via syringe, and the tube was placed in an oil bath at 70° C. Additional water was slowly added to determine solubility properties under simulated hydroformylation reaction conditions. Total water content is based on the initial water level (determined by K—F titration) plus the incremental water additions made throughout.

[4] = Observation of HPPA-Na2 in anhydrous valeraldehyde at room temperature (Comparative Example 1); details: 15 mg in anhydrous valeraldehyde (3.52 g; 0.0961 wt % water), two hours
Procedure: One small portion (15 mg) of a disodium salt of hydroxypentylphosphonic acid (HPPA-Na2) was charged to a 20 ml glass vial under nitrogen. Anhydrous valeraldehyde (3.52 g; 0.0961 wt % water) was added and the resulting mixture was stirred at room temperature.

CCCCC(O)P(=O)([O-])[O-].[Na+].[Na+] (centres unmarked) [HPPA-Na2, disodium salt of hydroxypentylphosphonic acid]
HPPA-Na2 solubility ([1]; Ex. 4, Val. 52.0 wt %, Val Trimer 26.0 wt %, 1-butene 21.2 wt %, Water 0.103 wt %): 4.8 ppm
Description ([1]; Ex. 4, Water 0.103 wt %): Hazy watery
HPPA-Na2 solubility ([1]; Ex. 5, Val. 52.1 wt %, Val Trimer 26.0 wt %, 1-butene 21.1 wt %, Water 0.380 wt %): 15.5 ppm
Description ([1]; Ex. 5, Water 0.380 wt %): Very hazy
HPPA-Na2 solubility ([1]; Ex. 6, Val. 52.7 wt %, Val Trimer 26.4 wt %, 1-butene 20.8 wt %, Water 0.860 wt %): 21.3 ppm
Description ([1]; Ex. 6, Water 0.860 wt %): Solid gel
Observations ([2]; Example 1, val/val trimer 8.42 g, 1-butene 2.41 g, Water 0.29 %): Voluminous, gelatinous
Observations ([2]; Example 2, val/val trimer 8.94 g, 1-butene 2.26 g, Water 0.87 %): Mixture of gel and sticky
Observations ([2]; Example 3, val/val trimer 8.97 g, 1-butene 2.22 g, Water 1.47 %): Sticky material on glass
Result ([3]; 22 ° C., water content 0.86 %, additive 1.22 g 1-butene): No change
Result ([3]; 22 ° C., water content 0.86 %, additives None): Opaque with sticky, gelatinous
Result ([3]; 70 ° C., water content 0.86 %, additives None): No change
Result ([3]; 70 ° C., water content 3.19 %, additive 0.1 mL water): No change
Result ([3]; 70 ° C., water content 5.54 %, additive 0.1 mL water): Less turbid
Result ([3]; 70 ° C., water content 7.72 %, additive 0.1 mL water): Much less turbid; solids gone
Result ([3]; 70 ° C., water content 9.8 %, additive 0.1 mL water): Clear solution
Appearance of the solids after stirring [4]: the solids remained free-flowing, suspended particulates
